# Activity calls are given as the source filed them. No cut-off for these calls is given here.
# Experiments:
# MDA-MB-231 [1] = assay: Antiproliferative activity against human MDA-MB-231 cells assessed as reduction in cell proliferation incubated for 72 hrs by CellTiter-Glo reagent based assay; type: functional; details: MDA-MB-231, 72 h
# [2] = Apparent permeability from apical to basolateral side in human Caco2 cells at 10 uM by LC/MS/MS analysis
# [3] = Efflux ratio in human Caco2 cells at 10 uM by LC/MS/MS analysis
# [4] = target: Voltage-gated inwardly rectifying potassium channel KCNH2 (Homo sapiens, UniProt Q12809); assay: Inhibition of human ERG by patch-clamp assay
# [5] = Clearance in iv dosed rat; type: ADME, organism-based; details: in vivo
# [6] = Volume of distribution at steady state in iv dosed rat; type: ADME, organism-based; details: in vivo, read-out: Vdss
# [7] = Half life in iv dosed rat; type: ADME, organism-based; details: in vivo
# [8] = AUC in iv dosed rat; type: ADME, organism-based; details: in vivo
# [9] = target: T1, Eukaryotic initiation factor 4A-I (Homo sapiens, UniProt P60842); assay: Inhibition of eIF4A1 in human MDA-MB-231 cells assessed as inhibition of cellular-translation incubated for 4 hrs by specific tandem sequence motif repeat AGAGAG in 5'- UTR containing luciferase reporter gene assay; type: cell-based
# [10] = target: T1, Eukaryotic initiation factor 4A-I; assay: Inhibition of eIF4A1 in human MDA-MB-231 cells assessed as inhibition of cellular-translation incubated for 4 hrs by specific tandem sequence motif repeat GGCGGC in 5'- UTR containing luciferase reporter gene assay; type: cell-based
# [11] = target: T1, Eukaryotic initiation factor 4A-I; assay: Inhibition of eIF4A1 in human MDA-MB-231 cells assessed as inhibition of cellular-translation incubated for 4 hrs by specific tandem sequence motif repeat CCGCCG in 5'- UTR containing luciferase reporter gene assay; type: cell-based
# [12] = target: T1, Eukaryotic initiation factor 4A-I; assay: Inhibition of eIF4A1 in human MDA-MB-231 cells assessed as inhibition of cellular-translation incubated for 4 hrs by specific tandem sequence motif repeat CAACAA in 5'- UTR containing luciferase reporter gene assay; type: cell-based
# [13] = target: T1, Eukaryotic initiation factor 4A-I; assay: Binding affinity to full length recombinant eIF4A1 (unknown origin) assessed as induction ternary complex formation in presence of AGAGAG by measuring half life for AGAGAG + ATP complex formation SPR assay
# [14] = target: T1, Eukaryotic initiation factor 4A-I; assay: Binding affinity to full length recombinant eIF4A1 (unknown origin) assessed as induction ternary complex formation in presence of AGAGAG by measuring half life for AGAGAG + AMP-PNP complex formation SPR assay
# [15] = target: T1, Eukaryotic initiation factor 4A-I; assay: Binding affinity to full length recombinant eIF4A1 (unknown origin) assessed as induction ternary complex formation in presence of DNA oligo sequences by measuring Kd for DNA oligo sequences + ATP complex formation SPR assay
# [16] = target: T1, Eukaryotic initiation factor 4A-I; assay: Inhibition of eIF4A1 in human HAP1 cells assessed as reduction in c-MYC protein expression at 5 to 50 nM incubated for 24 hrs by Western blot analysis; type: cell-based
# [17] = target: T1, Eukaryotic initiation factor 4A-I; assay: Inhibition of eIF4A1 in human HAP1 cells assessed as reduction in MCL-1 protein expression at 5 to 50 nM incubated for 24 hrs by Western blot analysis; type: cell-based
# [18] = target: T1, Eukaryotic initiation factor 4A-I; assay: Inhibition of eIF4A1 in human HAP1 cells assessed as reduction in Cyclin D1 protein expression at 5 to 50 nM incubated for 24 hrs by Western blot analysis; type: cell-based
# HAP1 [19] = assay: Inhibition of eIF4A1 F163L mutant in human HAP1 cells assessed as reduction in c-MYC protein expression at 5 to 50 nM incubated for 24 hrs by Western blot analysis; type: cell-based
# HAP1 [20] = assay: Inhibition of eIF4A1 F163L mutant in human HAP1 cells assessed as reduction in MCL-1 protein expression at 5 to 50 nM incubated for 24 hrs by Western blot analysis; type: cell-based
# HAP1 [21] = assay: Inhibition of eIF4A1 F163L mutant in human HAP1 cells assessed as reduction in Cyclin D1 protein expression at 5 to 50 nM incubated for 24 hrs by Western blot analysis; type: cell-based
# Homo sapiens = organism: Homo sapiens; assay: Inhibition of L-type calcium channel diltiazem binding site (unknown origin) at 10 uM relative to control
# MDA-MB-231 [22] = assay: Induction of cell cycle arrest in human MDA-MB-231 cells assessed as increase in G2/M population incubated for 24 hrs by LIVE/DEAD fixable dead cell staining based flow cyclometry; type: functional
# MDA-MB-231 [23] = assay: Induction of apoptosis in human MDA-MB-231 cells assessed as increase in apoptotic cells level incubated for 24 hrs by annexin V and propidium iodide staining based flow cyclometry; type: functional, cell-based
# MDA-MB-231 [24] = assay: Induction of apoptosis in human MDA-MB-231 cells assessed as increase in dead cells level incubated for 24 hrs by annexin V and propidium iodide staining based flow cyclometry; type: functional, cell-based
# [25] = target: T1, Eukaryotic initiation factor 4A-I; assay: Inhibition of eIF4A1 in human MDA-MB-231 cells assessed as reduction in cyclin D1 protein expression at 10 to 100 nM incubated for 24 hrs by Western blot analysis; type: cell-based
# [26] = target: T1, Eukaryotic initiation factor 4A-I; assay: Inhibition of eIF4A1 in human MDA-MB-231 cells assessed as reduction in BCL2 protein expression at 10 to 100 nM incubated for 24 hrs by Western blot analysis; type: cell-based
# [27] = Inhibition of eIF4A1 F163L mutant in human HAP1 cells assessed as reduction in cell proliferation incubated for 72 hrs by CellTiter-Glo reagent based assay; details: HAP1, 72 h
# MDA-MB-231 [28] = assay: Effect on GADPH protein expression in human MDA-MB-231 cells 10 to 100 nM incubated for 24 hrs by Western blot analysis; type: ADME, cell-based; details: mda-mb-231, 24 h
# MDA-MB-231 [29] = assay: Antitumor activity against human MDA-MB-231 cells xenografted in athymic nude ((NCr) nu/nu mouse assessed as inhibition of tumor growth at 1 mg/kg, iv treated once weekly for 2 weeks relative to control; type: functional; details: MDA-MB-231, iv, 336 h
# [30] = Toxicity in athymic nude ((NCr) nu/nu mouse xenografted with human MDA-MB-231 cells assessed as induction of body weight loss at 1 mg/kg, iv treated once weekly for 2 weeks relative to control; type: organism-based; details: in vivo, 336 h
# [31] = Half life in mouse at 1 mg, iv administered as single dose measured after 0.083 to 24 hrs by LC-MS analysis; type: ADME, organism-based; details: in vivo
# [32] = Half life in Sprague-Dawley rat at 1 mg, iv administered as single dose measured after 0.083 to 24 hrs by LC-MS analysis; type: ADME, organism-based; details: in vivo
# [33] = Half life in monkey at 1 mg, iv administered as single dose measured after 0.083 to 24 hrs by LC-MS analysis; type: ADME, organism-based, Macaca mulatta; details: rhesus monkey, in vivo
# [34] = Clearance in mouse at 1 mg, iv administered as single dose measured after 0.083 to 24 hrs by LC-MS analysis; type: ADME, organism-based; details: in vivo
# [35] = Clearance in Sprague-Dawley rat at 1 mg, iv administered as single dose measured after 0.083 to 24 hrs by LC-MS analysis; type: ADME, organism-based; details: in vivo
# [36] = Clearance in dog at 1 mg, iv administered as single dose measured after 0.083 to 24 hrs by LC-MS analysis; type: ADME, organism-based, Canis lupus familiaris; details: in vivo
# [37] = Clearance in monkey at 1 mg, iv administered as single dose measured after 0.083 to 24 hrs by LC-MS analysis; type: ADME, organism-based, Macaca mulatta; details: rhesus monkey, in vivo
# [38] = Volume of distribution at steady state in mouse at 1 mg, iv administered as single dose measured after 0.083 to 24 hrs by LC-MS analysis; type: ADME, organism-based; details: in vivo, read-out: Vdss
# [39] = Volume of distribution at steady state in Sprague-Dawley rat at 1 mg, iv administered as single dose measured after 0.083 to 24 hrs by LC-MS analysis; type: ADME, organism-based; details: in vivo, read-out: Vdss
# [40] = Volume of distribution at steady state in dog at 1 mg, iv administered as single dose measured after 0.083 to 24 hrs by LC-MS analysis; type: ADME, organism-based, Canis lupus familiaris; details: in vivo, read-out: Vdss
# [41] = Volume of distribution at steady state in monkey at 1 mg, iv administered as single dose measured after 0.083 to 24 hrs by LC-MS analysis; type: ADME, organism-based, Macaca mulatta; details: rhesus monkey, in vivo, read-out: Vdss
# [42] = Protein binding in mouse plasma; type: ADME, cell-free; details: read-out: PPB (converted)
# [43] = Protein binding in rat plasma; type: ADME, cell-free; details: read-out: PPB (converted)
# [44] = Protein binding in dog plasma; type: ADME, cell-free, Canis lupus familiaris; details: read-out: PPB (converted)
# [45] = Protein binding in monkey plasma; type: ADME, cell-free, Macaca mulatta; details: rhesus monkey, read-out: PPB (converted)
# [46] = Protein binding in human plasma; type: ADME, cell-free; details: read-out: PPB (converted)
# T1 sequence (P60842 whole entry): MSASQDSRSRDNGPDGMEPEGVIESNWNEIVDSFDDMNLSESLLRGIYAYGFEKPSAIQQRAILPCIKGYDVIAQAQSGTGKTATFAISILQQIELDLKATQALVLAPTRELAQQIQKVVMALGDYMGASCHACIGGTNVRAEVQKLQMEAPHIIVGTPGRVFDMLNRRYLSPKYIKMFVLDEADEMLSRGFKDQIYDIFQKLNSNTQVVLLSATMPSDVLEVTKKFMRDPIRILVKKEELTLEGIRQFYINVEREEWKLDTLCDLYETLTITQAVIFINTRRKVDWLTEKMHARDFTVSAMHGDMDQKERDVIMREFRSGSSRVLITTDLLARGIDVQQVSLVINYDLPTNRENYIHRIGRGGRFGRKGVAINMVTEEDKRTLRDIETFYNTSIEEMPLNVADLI
# Sequence of Voltage-gated inwardly rectifying potassium channel KCNH2 (Q12809 whole entry): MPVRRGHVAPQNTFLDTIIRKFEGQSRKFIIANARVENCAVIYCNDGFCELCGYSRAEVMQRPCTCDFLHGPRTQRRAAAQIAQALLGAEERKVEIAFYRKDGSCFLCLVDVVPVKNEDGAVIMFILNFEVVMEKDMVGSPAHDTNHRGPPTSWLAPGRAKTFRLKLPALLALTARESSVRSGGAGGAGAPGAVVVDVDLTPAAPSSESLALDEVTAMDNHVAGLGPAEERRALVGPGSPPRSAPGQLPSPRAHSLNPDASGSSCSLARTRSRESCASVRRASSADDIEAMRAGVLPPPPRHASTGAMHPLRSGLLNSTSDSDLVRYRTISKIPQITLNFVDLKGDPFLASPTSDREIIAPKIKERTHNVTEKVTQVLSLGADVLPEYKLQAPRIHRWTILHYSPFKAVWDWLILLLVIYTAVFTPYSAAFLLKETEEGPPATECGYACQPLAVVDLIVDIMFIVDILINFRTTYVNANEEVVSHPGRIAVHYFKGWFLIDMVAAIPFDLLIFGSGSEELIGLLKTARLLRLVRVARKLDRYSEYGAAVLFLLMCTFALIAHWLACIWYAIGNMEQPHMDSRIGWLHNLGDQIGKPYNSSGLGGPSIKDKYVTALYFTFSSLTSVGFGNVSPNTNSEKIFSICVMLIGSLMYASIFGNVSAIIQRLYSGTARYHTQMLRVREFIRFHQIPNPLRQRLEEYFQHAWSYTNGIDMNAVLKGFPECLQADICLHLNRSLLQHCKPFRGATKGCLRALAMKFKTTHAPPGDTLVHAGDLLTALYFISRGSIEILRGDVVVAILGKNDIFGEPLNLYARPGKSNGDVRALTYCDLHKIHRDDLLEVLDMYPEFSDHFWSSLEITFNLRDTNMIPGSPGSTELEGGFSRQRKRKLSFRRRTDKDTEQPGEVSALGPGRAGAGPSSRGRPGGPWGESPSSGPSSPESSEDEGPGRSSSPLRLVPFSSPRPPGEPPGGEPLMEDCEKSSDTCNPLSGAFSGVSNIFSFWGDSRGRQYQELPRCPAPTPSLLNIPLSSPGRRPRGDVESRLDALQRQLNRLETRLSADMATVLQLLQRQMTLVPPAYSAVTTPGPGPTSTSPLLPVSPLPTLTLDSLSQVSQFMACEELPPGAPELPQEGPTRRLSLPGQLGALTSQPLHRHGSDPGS
compound,measurement,setting,value
COc1cncc2c1[C@]1(O)[C@H](O)[C@H](CN(C)C)[C@@H](c3ccccc3)[C@]1(c1ccc(C#N)cc1)O2 (stereo in doubt; (-)-37),IC50,MDA-MB-231 [1],54 nM
same,Papp A→B at 10 µM,"[2]; Caco-2, Papp",0.21 ×10⁻⁶ cm/s
same,efflux ratio at 10 µM,"[3]; Caco-2, Ratio",22
same,IC50,[4],> 10000 nM
same,clearance,[5],39 mL/min/kg
same,Vd,[6],5.2 L/kg
same,half-life,[7],2.9 h
same,AUC,[8],440 ng·h/mL
C[C@@H]1C[C@@H]([C@H](O)CC2CC(=O)NC(=O)C2)C(=O)[C@@H](C)C1 [CYCLOHEXIMIDE],IC50,[9],226 nM
same,IC50,[10],101 nM
same,IC50,[11],87 nM
same,IC50,[12],142 nM
COc1cncc2c1[C@]1(O)[C@H](O)[C@H](CN(C)C)[C@@H](c3ccccc3)[C@]1(c1ccc(C#N)cc1)O2.Cl,solubility thermodynamic,physchem,> 20 mg/mL
COc1cncc2c1[C@]1(O)[C@H](O)[C@H](C(=O)N(C)C)[C@@H](c3ccccc3)[C@]1(c1ccc(C#N)cc1)O2.Cl,solubility thermodynamic,physchem,0.22 mg/mL
COc1cc2c(c(OC)n1)[C@]1(O)[C@H](O)[C@H](CN(C)C)[C@@H](c3ccccc3)[C@]1(c1ccc(C#N)cc1)O2,T1/2,[13],1.32 min
same,T1/2,[14],0.642 h
same,Activity,[15],inactive
same,inhibition,[9],Dose-dependent effect
same,inhibition,[10],Dose-dependent effect
same,inhibition,[11],Dose-dependent effect
same,inhibition,[12],Dose-dependent effect
same,inhibition,[16],Dose-dependent effect
same,inhibition,[17],Dose-dependent effect
same,inhibition,[18],Dose-dependent effect
same,inhibition,HAP1 [19],inactive
same,inhibition,HAP1 [20],inactive
same,inhibition,HAP1 [21],inactive
same,inhibition,Homo sapiens,54%
same,Activity,MDA-MB-231 [22],Dose-dependent effect
same,Activity,MDA-MB-231 [23],Dose-dependent effect
same,Activity,MDA-MB-231 [24],Dose-dependent effect
same,inhibition,[25],Active
same,inhibition,[26],Active
COc1nc(C#N)cc2c1[C@]1(O)[C@H](O)[C@H](CN(C)C)[C@@H](c3ccccc3)[C@]1(c1ccc(C#N)cc1)O2,IC50,MDA-MB-231 [1],15 nM
same,clearance,[5],26 mL/min/kg
same,Vd,[6],10.3 L/kg
same,half-life,[7],11 h
same,AUC,[8],730 ng·h/mL
COc1cncc2c1[C@]1(O)[C@H](O)[C@H](C(=O)N(C)C)[C@@H](c3ccccc3)[C@]1(c1ccc(C#N)cc1)O2,IC50,MDA-MB-231 [1],33 nM
same,Papp A→B at 10 µM,[2]; Caco-2,0.65 ×10⁻⁶ cm/s
same,efflux ratio at 10 µM,[3]; Caco-2,5
same,clearance,[5],18 mL/min/kg
same,Vd,[6],1.1 L/kg
same,half-life,[7],2 h
same,AUC,[8],950 ng·h/mL
COc1cc2c(c(OC)n1)[C@]1(O)[C@H](O)[C@H](CN(C)C)[C@@H](c3ccccc3)[C@]1(c1ccc(C#N)cc1)O2 [ZOTATIFIN],IC50,MDA-MB-231 [1],10.6 nM
same,Papp A→B at 10 µM,[2]; Caco-2,2.5 ×10⁻⁶ cm/s
same,IC50,[4],> 10000 nM
same,clearance,[5],48 mL/min/kg
same,Vd,[6],13 L/kg
same,half-life,[7],4.4 h
same,AUC,[8],390 ng·h/mL
same,IC50,[9],1.5 nM
same,IC50,[10],13.8 nM
same,IC50,[11],92 nM
same,IC50,[12],218 nM
same,IC50,[27],371 nM
same,Activity,MDA-MB-231 [28],Non-Toxic
same,inhibition in vivo at 1 mg/kg,MDA-MB-231 [29],122%
same,Activity,[30],Non-Toxic
same,half-life,[31],10.9 h
same,half-life,[32],4.39 h
same,half-life,[33],14.9 h
same,clearance,[34],15.8 mL/min/kg
same,clearance,[35],48.3 mL/min/kg
same,clearance,[36],< 12.4 mL/min/kg
same,clearance,[37],11.7 mL/min/kg
same,Vd,[38],12.1 L/kg
same,Vd,[39],13 L/kg
same,Vd,[40],17.8 L/kg
same,Vd,[41],12.2 L/kg
same,fraction unbound,[42],0.252
same,fraction unbound,[43],0.266
same,fraction unbound,[44],0.188
same,fraction unbound,[45],0.365
same,fraction unbound,[46],0.332
COc1cc2c(c(OC)n1)[C@]1(O)[C@H](O)[C@H](CN(C)C)[C@@H](c3ccccc3)[C@]1(c1ccc(C#N)cc1)O2.Cl,solubility thermodynamic,physchem,> 20 mg/mL
C[C@H]1C[C@@]2(O[C@H]3C[C@H]4[C@@H]5CC[C@H]6C[C@H](O)CC[C@]6(C)[C@H]5[C@@H](O)C[C@]4(C)[C@H]3[C@@]2(C)O)OC1(C)C [HIPPURISTANOL],IC50,[9],426 nM
same,IC50,[10],369 nM
same,IC50,[11],210 nM
same,IC50,[12],204 nM
